Measured values as given in ChEMBL document CHEMBL5143662, “Discovery of EP300/CBP histone acetyltransferase inhibitors through scaffold hopping of 1,4-oxazepane ring” (Bioorg Med Chem Lett, 2022).
pIC50: −log10 of the molar value. Values after ≈ are worked out from the molar mass of the structure shown.

Experiments:
[1] = Solubility of the compound at pH 1.2; format: physicochemical; details: buffer
[2] = Solubility of the compound at pH 6.8; format: physicochemical; details: buffer
LK-2 [3] = assay: Antitumor activity against human LK2 cells xenografted in BALB/c nude mouse assessed as suppression of SOX2 mRNA level in […] at 50 to 200 mg/kg, po and measured after 6 hrs by qRT-PCR analysis relative to GADPH; format: functional, organism-based; details: dose 50-200 mg/kg, DDE = dose-dependent effect
[4] = Lipophilicity, logD of compound; format: physicochemical; details: octanol/water
[5] = Metabolic stability in mouse liver microsomes assessed as parent compound remaining measured after 0.5 hr; format: ADME, Microsome; details: read-out: Stability
[6] = target: T1, Histone acetyltransferase p300 (Homo sapiens, UniProt Q09472); assay: Inhibition of EP300 in human LK2 cells assessed as reduction in intracellular histone H3 acetylation at lysine 27 residue incubated for 3 hrs by chemiluminescence based ELISA; format: cell-based
[7] = Permeability of compound at pH 7.4 by PAMPA assay; format: ADME; details: read-out: permeability
LK-2 [8] = assay: Antitumor activity against human LK2 cells xenografted in BALB/c nude mouse assessed as suppression of SOX2 mRNA level in tumor at 50 to 200 mg/kg, po and measured after 6 hrs by qRT-PCR analysis relative to GADPH; format: functional, organism-based; details: dose 50-200 mg/kg, DDE = dose-dependent effect
CREB-binding protein [9] = target: T2, CREB-binding protein (Homo sapiens, UniProt Q92793); assay: Inhibition of CBP (unknown origin) using biotinylated H4 (1 to […])-GSGSK peptide as substrate incubated for 1 hr by AlphaLISA assay
Target sequence in this assay (Q92793 whole entry): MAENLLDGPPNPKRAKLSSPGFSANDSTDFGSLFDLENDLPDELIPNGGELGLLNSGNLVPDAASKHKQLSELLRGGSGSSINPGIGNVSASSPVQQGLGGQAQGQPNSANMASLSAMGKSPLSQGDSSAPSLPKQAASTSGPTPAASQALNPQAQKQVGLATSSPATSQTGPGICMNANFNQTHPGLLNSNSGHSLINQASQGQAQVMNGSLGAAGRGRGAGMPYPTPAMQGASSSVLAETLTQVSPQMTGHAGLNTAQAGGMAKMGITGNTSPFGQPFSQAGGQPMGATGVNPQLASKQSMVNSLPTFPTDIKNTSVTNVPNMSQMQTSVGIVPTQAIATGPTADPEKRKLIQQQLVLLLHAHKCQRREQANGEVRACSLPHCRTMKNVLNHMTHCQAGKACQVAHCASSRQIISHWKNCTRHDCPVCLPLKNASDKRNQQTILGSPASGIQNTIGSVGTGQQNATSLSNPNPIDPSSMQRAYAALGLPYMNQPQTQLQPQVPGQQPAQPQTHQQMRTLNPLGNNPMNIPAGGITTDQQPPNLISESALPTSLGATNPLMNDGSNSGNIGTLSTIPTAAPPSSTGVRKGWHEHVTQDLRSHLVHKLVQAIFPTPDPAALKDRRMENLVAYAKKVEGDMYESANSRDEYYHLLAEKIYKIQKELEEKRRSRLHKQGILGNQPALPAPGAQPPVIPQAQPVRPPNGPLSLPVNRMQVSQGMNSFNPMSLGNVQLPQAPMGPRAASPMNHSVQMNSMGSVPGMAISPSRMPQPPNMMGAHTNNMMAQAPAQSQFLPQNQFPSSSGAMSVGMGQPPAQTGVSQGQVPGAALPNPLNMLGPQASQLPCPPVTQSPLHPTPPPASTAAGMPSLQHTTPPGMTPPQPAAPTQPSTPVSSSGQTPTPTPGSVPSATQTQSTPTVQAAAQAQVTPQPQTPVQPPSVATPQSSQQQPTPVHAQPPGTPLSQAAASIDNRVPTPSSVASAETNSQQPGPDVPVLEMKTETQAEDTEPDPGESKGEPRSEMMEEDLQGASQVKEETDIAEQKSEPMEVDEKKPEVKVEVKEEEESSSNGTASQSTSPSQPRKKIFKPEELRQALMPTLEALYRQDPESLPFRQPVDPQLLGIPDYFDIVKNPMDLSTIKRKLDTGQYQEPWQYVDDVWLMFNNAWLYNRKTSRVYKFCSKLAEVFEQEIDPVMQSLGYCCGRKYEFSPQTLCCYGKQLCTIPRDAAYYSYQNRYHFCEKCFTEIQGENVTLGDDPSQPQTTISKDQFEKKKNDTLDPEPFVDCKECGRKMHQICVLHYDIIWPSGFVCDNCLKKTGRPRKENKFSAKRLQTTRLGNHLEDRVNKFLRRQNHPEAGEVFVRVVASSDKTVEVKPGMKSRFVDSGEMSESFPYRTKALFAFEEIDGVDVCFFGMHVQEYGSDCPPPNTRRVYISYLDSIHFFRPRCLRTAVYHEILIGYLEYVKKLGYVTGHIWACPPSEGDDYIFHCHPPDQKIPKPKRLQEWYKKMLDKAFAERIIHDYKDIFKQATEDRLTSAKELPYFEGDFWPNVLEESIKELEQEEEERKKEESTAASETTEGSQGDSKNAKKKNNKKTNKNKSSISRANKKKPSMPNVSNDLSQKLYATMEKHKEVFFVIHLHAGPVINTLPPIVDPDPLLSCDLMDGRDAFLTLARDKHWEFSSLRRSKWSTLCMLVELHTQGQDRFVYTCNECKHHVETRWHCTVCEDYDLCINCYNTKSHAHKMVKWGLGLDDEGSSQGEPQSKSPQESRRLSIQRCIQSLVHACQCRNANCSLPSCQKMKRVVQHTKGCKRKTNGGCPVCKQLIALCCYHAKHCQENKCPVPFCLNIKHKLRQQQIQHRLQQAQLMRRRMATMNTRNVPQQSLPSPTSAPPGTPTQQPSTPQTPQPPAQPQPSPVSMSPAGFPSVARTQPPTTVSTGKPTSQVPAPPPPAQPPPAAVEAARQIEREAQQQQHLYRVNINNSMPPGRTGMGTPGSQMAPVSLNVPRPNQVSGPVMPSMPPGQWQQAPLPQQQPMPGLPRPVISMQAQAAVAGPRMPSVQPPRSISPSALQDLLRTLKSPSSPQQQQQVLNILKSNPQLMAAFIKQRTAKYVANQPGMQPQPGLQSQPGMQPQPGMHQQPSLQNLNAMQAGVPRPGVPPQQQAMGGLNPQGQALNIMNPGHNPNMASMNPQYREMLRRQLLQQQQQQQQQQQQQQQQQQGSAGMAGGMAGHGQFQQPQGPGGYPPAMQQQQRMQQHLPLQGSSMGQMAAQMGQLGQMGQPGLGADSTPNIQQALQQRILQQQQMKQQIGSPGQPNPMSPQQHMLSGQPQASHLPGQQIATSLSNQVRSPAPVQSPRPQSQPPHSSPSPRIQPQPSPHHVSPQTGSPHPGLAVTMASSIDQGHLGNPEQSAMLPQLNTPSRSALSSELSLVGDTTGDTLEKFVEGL

[10] = Inhibition of SOX2 mRNA expression in human LK2 cells incubated for 6 hrs by RT-qPCR analysis; format: functional, cell-based; details: LK-2, 6 h
[11] = Protein binding in mouse plasma assessed as unbound fraction; format: ADME, cell-free
[12] = target: T1, Histone acetyltransferase p300; assay: Inhibition of N-terminal His tagged human EP300 (1159-1666 residues) expressed in Escherichia coli BL21 (DE3) using biotinylated H4 (1 to 25)-GSGSK peptide as substrate incubated for 1 hr by AlphaLISA assay
[13] = Permeability of compound at pH 5.0 by PAMPA assay; format: ADME; details: read-out: permeability
[14] = target: Histone acetyltransferase KAT7 (Homo sapiens, UniProt O95251); assay: Inhibition of MYST2 (unknown origin) using biotinylated H4 (1 to […])-GSGSK peptide as substrate incubated for 1 hr by AlphaLISA assay
[15] = target: Histone acetyltransferase KAT2A (Homo sapiens, UniProt Q92830); assay: Inhibition of GST tagged human GCN5 (323 to end residues) expressed in Sf9 cells using biotinylated H3 (1 to 21)-GGK peptide as substrate incubated for 1 hr by AlphaLISA assay
[16] = target: Histone acetyltransferase KAT2B (Homo sapiens, UniProt Q92831); assay: Inhibition of GST tagged human PCAF (431 to end residues) expressed in Sf9 cells using biotinylated H3 (1 to 21)-GGK peptide as substrate incubated for 1 hr by AlphaLISA assay
CREB-binding protein [17] = target: T2, CREB-binding protein; assay: Inhibition of CBP (unknown origin) at 50 uM using biotinylated H4 (1 to 25)-GSGSK peptide as substrate incubated for 1 hr by AlphaLISA assay relative to control
[18] = target: Histone acetyltransferase KAT6B (Homo sapiens, UniProt Q8WYB5); assay: Inhibition of MYST4 (unknown origin) using biotinylated H4 (1 to […])-GSGSK peptide as substrate incubated for 1 hr by AlphaLISA assay
[19] = target: Histone acetyltransferase KAT5 (Homo sapiens, UniProt Q92993); assay: Inhibition of GST tagged human TIP60 expressed in Sf9 cells using biotinylated H4 (1 to 25)-GSGSK peptide as substrate incubated for 1 hr by AlphaLISA assay

T1 sequence (Q09472 whole entry): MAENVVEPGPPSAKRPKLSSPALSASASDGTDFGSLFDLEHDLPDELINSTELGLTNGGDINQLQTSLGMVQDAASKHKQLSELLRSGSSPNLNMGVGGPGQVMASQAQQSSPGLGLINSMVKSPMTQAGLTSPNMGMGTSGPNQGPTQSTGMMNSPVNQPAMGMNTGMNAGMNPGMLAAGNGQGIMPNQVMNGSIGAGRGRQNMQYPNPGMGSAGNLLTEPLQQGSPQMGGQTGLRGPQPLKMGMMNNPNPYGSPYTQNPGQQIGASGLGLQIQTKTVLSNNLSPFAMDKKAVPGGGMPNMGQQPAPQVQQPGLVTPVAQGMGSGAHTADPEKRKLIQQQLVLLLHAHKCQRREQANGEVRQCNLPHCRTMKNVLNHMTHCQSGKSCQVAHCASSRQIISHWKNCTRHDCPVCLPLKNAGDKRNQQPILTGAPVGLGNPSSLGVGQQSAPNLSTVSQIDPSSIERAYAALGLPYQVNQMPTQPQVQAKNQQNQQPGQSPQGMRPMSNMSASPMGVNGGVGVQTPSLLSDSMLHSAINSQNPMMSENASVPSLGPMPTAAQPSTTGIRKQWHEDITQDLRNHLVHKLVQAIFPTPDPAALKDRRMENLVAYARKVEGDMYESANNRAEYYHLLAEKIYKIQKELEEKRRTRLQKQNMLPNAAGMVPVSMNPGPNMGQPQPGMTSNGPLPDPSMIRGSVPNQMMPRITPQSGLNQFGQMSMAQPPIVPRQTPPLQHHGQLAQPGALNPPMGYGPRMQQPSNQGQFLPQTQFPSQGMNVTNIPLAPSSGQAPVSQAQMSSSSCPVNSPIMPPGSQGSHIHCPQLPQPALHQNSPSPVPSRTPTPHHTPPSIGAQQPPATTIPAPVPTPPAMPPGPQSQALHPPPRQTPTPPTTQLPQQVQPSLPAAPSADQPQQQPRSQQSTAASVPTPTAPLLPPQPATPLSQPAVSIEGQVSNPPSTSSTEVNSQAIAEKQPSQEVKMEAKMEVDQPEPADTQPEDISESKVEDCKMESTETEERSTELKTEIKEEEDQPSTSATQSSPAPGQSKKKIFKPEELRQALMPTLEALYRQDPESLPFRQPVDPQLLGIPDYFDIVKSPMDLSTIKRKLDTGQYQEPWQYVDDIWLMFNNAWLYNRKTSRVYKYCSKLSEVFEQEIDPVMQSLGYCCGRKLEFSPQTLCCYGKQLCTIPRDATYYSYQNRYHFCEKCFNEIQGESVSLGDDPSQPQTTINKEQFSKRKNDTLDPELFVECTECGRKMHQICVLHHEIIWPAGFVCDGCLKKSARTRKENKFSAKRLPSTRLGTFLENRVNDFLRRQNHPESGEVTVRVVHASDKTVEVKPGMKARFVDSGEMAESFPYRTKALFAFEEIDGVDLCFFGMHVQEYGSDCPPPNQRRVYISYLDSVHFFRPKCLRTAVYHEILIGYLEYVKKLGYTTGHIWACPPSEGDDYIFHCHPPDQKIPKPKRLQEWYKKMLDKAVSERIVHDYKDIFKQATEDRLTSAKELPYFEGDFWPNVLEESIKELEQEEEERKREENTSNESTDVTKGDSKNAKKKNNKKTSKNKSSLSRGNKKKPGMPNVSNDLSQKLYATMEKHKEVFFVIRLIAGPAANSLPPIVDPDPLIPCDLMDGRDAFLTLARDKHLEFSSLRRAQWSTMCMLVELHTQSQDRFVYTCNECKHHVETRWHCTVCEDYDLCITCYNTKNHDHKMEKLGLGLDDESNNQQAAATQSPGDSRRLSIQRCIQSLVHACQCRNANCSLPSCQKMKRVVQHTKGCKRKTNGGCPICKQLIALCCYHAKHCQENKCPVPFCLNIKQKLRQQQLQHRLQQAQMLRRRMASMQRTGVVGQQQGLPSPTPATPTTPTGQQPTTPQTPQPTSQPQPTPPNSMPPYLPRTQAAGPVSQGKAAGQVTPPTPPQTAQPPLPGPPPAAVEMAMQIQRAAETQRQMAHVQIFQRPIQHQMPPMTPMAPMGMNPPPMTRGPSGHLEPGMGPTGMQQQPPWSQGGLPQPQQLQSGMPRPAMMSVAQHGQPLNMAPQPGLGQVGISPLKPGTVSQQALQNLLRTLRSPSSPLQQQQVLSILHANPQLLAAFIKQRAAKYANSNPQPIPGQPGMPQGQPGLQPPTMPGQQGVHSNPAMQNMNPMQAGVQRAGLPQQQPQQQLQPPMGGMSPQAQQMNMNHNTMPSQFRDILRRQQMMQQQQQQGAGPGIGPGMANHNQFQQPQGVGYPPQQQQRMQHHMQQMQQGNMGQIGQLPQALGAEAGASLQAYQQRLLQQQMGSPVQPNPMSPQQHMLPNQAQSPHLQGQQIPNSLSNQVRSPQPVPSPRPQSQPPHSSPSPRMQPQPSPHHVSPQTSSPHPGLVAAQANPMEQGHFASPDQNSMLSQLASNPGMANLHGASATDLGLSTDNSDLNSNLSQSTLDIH

| remaining at 0.5 h [5] | pIC50 [6] | pIC50 [12] | Structure (SMILES) | other results |
| --- | --- | --- | --- | --- |
|  | 6.21 | 6.85 | COc1ccc(C2(C(=O)N3CCOCC(Cc4cccc5[nH]ncc45)C3)CCCCC2)cc1 (stereo not given) |  |
| 5% | 6.34 | 7.25 | COc1ccc(C2(C(=O)N3C[C@H](F)C[C@@H]3C(=O)Nc3cccc4[nH]ncc34)CCCC2)cc1 |  |
|  | 5.65 | 6.21 | COc1ccc(C2(C(=O)N3CCOCC(Cc4cccc5[nH]ncc45)C3)CCOCC2)cc1 (stereo not given) |  |
|  | 6.38 | 6.77 | COc1ccc(C2(C(=O)N3CCC[C@@H]3C(=O)Nc3cccc4[nH]ncc34)CCCCC2)cc1 |  |
|  | 6.42 | 6.89 | COc1ccc(C2(C(=O)N3CCOCC(Cc4cccc5[nH]ncc45)C3)CCCC2)cc1 (stereo in doubt; 3) |  |
|  | < 4.60 |  | COc1ccc(C2(C(=O)N3CCOCC(Cc4cccc5[nH]ncc45)C3)CCCC2)cc1 (single isomer, unassigned; (-)) |  |
|  | 6.89 | 7.30 | COc1ccc(C2(C(=O)N3CCOCC(Cc4cccc5[nH]ncc45)C3)CCCC2)cc1 (single isomer, unassigned; (+)) |  |
| 10% |  | 6.74 | COc1ccc(C2(C(=O)N3CCC[C@@H]3C(=O)Nc3cccc4[nH]ncc34)CCCC2)cc1 |  |

The remaining lines, values behind:

| Structure (SMILES) | remaining at 0.5 h [5] | pIC50 [6] | pIC50 [12] | other results |
| --- | --- | --- | --- | --- |
| COc1ccc(C2(C(=O)N3CS(=O)(=O)C[C@@H]3C(=O)Nc3cccc4[nH]ncc34)CCCC2)cc1 | 37% | 6.35 | 6.82 | solubility [1]: 63 µg/mL (≈ 131 µM); solubility [2]: 50 µg/mL (≈ 104 µM); Activity (LK-2 [3]): Dde; logD [4]: 3.2; Papp [7]: > 50 ×10⁻⁶ cm/s; Activity (LK-2 [8]): Dde; pIC50 (CREB-binding protein [9]): 7.40; pIC50 [10]: 6.15; fraction unbound [11]: 0.952; Papp [13]: > 50 ×10⁻⁶ cm/s |
| CC1=NN(c2ccc(C(=O)O)cc2)C(=O)/C1=C\c1ccc(-c2cc(C)c(C)cc2[N+](=O)[O-])o1 |  |  |  | pIC50 [14]: 5.11; pIC50 [15]: 4.32; pIC50 [16]: 4.41; inhibition (CREB-binding protein [17]): 29%; pIC50 [18]: 4.68; pIC50 [19]: 4.43; pIC50 (CREB-binding protein [9]): < 4.30 |
| COc1ccc(C2(C(=O)N(C)[C@H](C)C(=O)Nc3cccc4[nH]ncc34)CCCC2)cc1 |  | 5.30 | 6.66 |  |
| COc1ccc(C2(C(=O)N3C[C@@H](O)C[C@@H]3C(=O)Nc3cccc4[nH]ncc34)CCCC2)cc1 | 57% | 5.84 | 6.04 |  |
| COc1ccc(C2(C(=O)N(C)CC(=O)Nc3cccc4[nH]ncc34)CCCCC2)cc1 |  | 6.00 | 6.72 |  |
| COc1ccc(C2(C(=O)N3C[C@H](O)C[C@@H]3C(=O)Nc3cccc4[nH]ncc34)CCCC2)cc1 | 47% | 5.99 |  |  |
